Test results: patent US10287251B2, “Pyrazole derivative or pharmaceutically acceptable salt thereof” (KISSEI PHARMACEUTICAL CO., LTD., priority 2015, dated 2019)

Legend:
TRPM8 = biological target: T1, TRPM8 (Rattus norvegicus, UniProt Q8R455); test: Confirmation test of inhibitory effects on icilin-induced wet-dog shakes; type: in vivo; details: female SD rats, icilin 1 mg/kg i.p. 1 hour after dosing, shakes counted for 5 minutes
T1 construct: from tissue; host or cells: whole animal, female SD rats (in vivo)
T1 sequence (Q8R455 whole entry): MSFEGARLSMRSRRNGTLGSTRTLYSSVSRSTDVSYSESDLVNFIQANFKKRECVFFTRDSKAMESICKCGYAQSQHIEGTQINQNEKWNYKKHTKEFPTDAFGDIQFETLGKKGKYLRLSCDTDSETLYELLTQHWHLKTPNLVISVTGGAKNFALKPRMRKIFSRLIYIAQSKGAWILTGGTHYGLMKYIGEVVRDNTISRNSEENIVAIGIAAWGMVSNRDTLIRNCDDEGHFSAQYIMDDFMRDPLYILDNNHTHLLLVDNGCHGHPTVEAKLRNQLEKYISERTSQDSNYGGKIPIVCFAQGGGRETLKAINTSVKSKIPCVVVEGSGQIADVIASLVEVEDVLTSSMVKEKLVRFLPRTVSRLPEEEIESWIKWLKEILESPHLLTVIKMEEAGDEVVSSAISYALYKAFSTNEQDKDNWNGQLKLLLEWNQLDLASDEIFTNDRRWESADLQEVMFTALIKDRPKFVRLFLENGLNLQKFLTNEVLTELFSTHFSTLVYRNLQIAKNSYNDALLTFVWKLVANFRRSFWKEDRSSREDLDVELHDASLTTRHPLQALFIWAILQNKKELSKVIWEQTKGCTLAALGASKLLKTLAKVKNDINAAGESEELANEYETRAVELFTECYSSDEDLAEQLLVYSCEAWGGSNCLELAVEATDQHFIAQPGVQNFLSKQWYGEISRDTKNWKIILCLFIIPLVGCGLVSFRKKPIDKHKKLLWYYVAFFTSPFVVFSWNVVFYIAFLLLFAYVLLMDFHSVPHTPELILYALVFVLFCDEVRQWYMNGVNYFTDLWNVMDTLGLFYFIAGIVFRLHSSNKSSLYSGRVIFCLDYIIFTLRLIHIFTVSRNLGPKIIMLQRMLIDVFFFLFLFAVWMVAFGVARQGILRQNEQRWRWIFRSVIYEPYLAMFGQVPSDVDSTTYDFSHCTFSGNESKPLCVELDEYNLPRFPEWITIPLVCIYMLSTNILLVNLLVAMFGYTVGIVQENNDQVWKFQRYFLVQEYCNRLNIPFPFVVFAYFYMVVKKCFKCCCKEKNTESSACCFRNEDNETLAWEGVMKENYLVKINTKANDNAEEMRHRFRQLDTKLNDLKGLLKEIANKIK
How it was run: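 Female SD rats received compounds orally at 0.3 to 10 mg/kg in 5% dimethylacetamide/0.5% methylcellulose. One hour later, icilin (1 mg/kg, i.p., in PEG 400) was given, and wet-dog shakes were counted for 5 min starting 5 min after icilin. Percent inhibition was calculated against vehicle-treated rats.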

[1] = tested on: overactive bladder induced by acetic acid; test: Confirmation test of elongation action of micturition interval of overactive bladder induced by acetic acid; type: in vivo; details: Rattus norvegicus, iv; urethane-anesthetized female SD rats, 1 mg/kg/mL via femoral vein, intravesical 0.25% acetic acid; interval after/before administration x100
Description: Further, TRPM8 inhibitory activity can be evaluated by the efficacy inhibiting the wet-dog shake action which is induced by the administration of Icilin, TRPM8 agonist. Furthermore, an effect on overactive bladder (OAB) can be evaluated by an elongation of micturition interval against overactive bladder induced by acetic acid in accordance with a similar method described in J. Urol., 2001, 166, 1142. Confirmation Test of Elongation Action of Micturition Interval of Overactive Bladder Induced by Acetic Acid Urethane (sigma) was dissolved into pure water by 25% w/v, and female SD rats were anesthetized with 1.25 g/kg urethane by subcutaneous administration. Cannulae were placed in femoral vein and bladder, and the bladder cannula was connected to both a syringe pump and a pressure transducer. Detrusor overactivity was induced by intravesical infusion of 0.25% acetic acid in saline at a rate of 3.6 mL/h, and intravesical pressure was monitored via pressure transducer concurrently. Test compounds were dissolved into a mixture of dimethylacetamide and saline (20:80), and were administered via, the femoral vein. Elongation of micturition interval (%) by test compound was calculated from the following formula: [an average of the three micturition interval after administration/an average of the three micturition interval before administration]×100.

| % inhibition of Wet-Dog Shake (TRPM8; oral dose 1 mg/kg) | % inhibition of Wet-Dog Shake (TRPM8; oral dose 3 mg/kg) | Structure (SMILES) | response vs control in vivo at 1 mg/kg [1] | further results |
| --- | --- | --- | --- | --- |
| 56% |  | O=C(N[C@@H](CCO)Cc1ncccc1F)c1cccc(F)c1-c1cc(-c2ccc(F)cc2)[nH]n1 [Example 1-125] | 223% |  |
| 51% |  | CO[C@H](CO)[C@@H](Cn1cccn1)NC(=O)c1cccc(F)c1-c1cc(-c2ccc(Cl)cc2)[nH]n1 [Example 27-14] | 195% |  |
|  | 80% | O=C(N[C@H](Cc1ccccn1)[C@H](F)CO)c1cccc(Cl)c1-c1cc(-c2ccc(F)cc2)[nH]n1 [Example 43-27] | 185% |  |
|  |  | O=C(N[C@H](Cc1ccccn1)[C@H](O)CO)c1cccc(F)c1-c1cc(-c2ccc(F)cc2)[nH]n1 [Example 1-139] | 163% |  |
|  | 86% | O=C(N[C@@H](CO)Cc1ccccn1)c1ccccc1-c1cc(-c2ccc(F)cc2)[nH]n1 [Example 1-58] | 159% |  |
| 100% |  | O=C(N[C@H](Cn1nccn1)[C@H](F)CO)c1cccc(F)c1-c1cc(-c2ccc(F)cc2)[nH]n1 [Example 43-42] | 158% |  |
|  |  | O=C(N[C@H](Cn1nccn1)[C@H](F)CO)c1cccc(F)c1-c1n[nH]c(-c2ccc(F)cc2)c1F [Example 43-43] | 172% | % inhibition of Wet-Dog Shake (TRPM8; oral dose 0.3 mg/kg): 93% |
| 88% |  | CO[C@H](CO)[C@@H](Cn1cccn1)NC(=O)c1ccccc1-c1cc(-c2ccc(F)cc2)[nH]n1 [Example 27-7] | 176% |  |
| 90% |  | CO[C@H](CO)[C@@H](Cc1ccccn1)NC(=O)c1cccc(F)c1-c1cc(-c2ccc(Cl)cc2)[nH]n1 [Example 43-1, 2-[5-(4-Chlorophenyl)-1H-pyrazol-3-yl]-3-fluoro-N-[(2R,3 S)-4-hydroxy-3-methoxy-1-(pyridin-2-yl)butan-2-yl]benzamide] | 156% |  |
| 92% |  | O=C(N[C@H](Cn1cccn1)C(F)(F)CO)c1cccc(F)c1-c1cc(-c2ccc(F)cc2)[nH]n1 [Example 50-1, N-[(2R)-3,3-Difluoro-4-hydroxy-1-(1H-pyrazol-1-yl)butan-2-yl]-3-fluoro-2-[5-(4-fluorophenyl)-1H-pyrazol-3-yl]benzamide] | 217% |  |
|  |  | CO[C@H](CO)[C@@H](Cc1ccccn1)NC(=O)c1cccc(F)c1-c1cc(-c2ccc(F)cc2)[nH]n1 [Example 43-3] | 158% | % inhibition of Wet-Dog Shake (TRPM8; oral dose 0.3 mg/kg): 58% |
| 90% |  | CO[C@H](CO)[C@@H](Cn1cccn1)NC(=O)c1cccc(F)c1-c1n[nH]c(-c2ccc(F)cc2)c1F [Example 27-25] | 167% |  |
| 66% |  | CO[C@H](CO)[C@@H](Cc1ncccn1)NC(=O)c1cccc(F)c1-c1cc(-c2ccc(F)cc2)[nH]n1 [Example 1-227] | 193% |  |
| 82% |  | O=C(N[C@@H](CCO)Cc1ccccn1)c1cccc(F)c1-c1cc(-c2ccc(F)cc2)[nH]n1 [Example 1-1, 3-Fluoro-2-[5-(4-fluorophenyl)-1H-pyrazol-3-yl]-N-[(2R)-4-hydroxy-1-(pyridin-2-yl)butan-2-yl]benzamide] | 169% |  |
| 84% |  | CO[C@H](CO)[C@@H](Cn1cccn1)NC(=O)c1cccc(F)c1-c1cc(-c2ccc(F)cc2)[nH]n1 [Example 27-1, 3-Fluoro-2-[5-(4-fluorophenyl)-1H-pyrazol-3-yl]-N-[(2R,3S)-4-hydroxy-3-methoxy-1-(1H-pyrazol-1-yl)butan-2-yl]benzamide] | 158% |  |
| 82% |  | CO[C@H](CO)[C@@H](Cc1ncccn1)NC(=O)c1ccccc1-c1cc(-c2ccc(F)cc2)[nH]n1 [Example 1-238] | 136% |  |
| 100% |  | O=C(N[C@H](Cc1ccccn1)[C@H](O)CO)c1ccccc1-c1n[nH]c(-c2ccc(F)cc2)c1F [Example 1-172] | 194% |  |
| 59% |  | O=C(N[C@@H](CO)Cc1ccccn1)c1cccc(F)c1-c1cc(-c2ccc(F)cc2)[nH]n1 [Example 1-84] | 183% |  |
|  |  | CO[C@H](CO)[C@@H](Cc1ncccc1F)NC(=O)c1cccc(F)c1-c1cc(-c2ccc(F)cc2)[nH]n1 [Example 27-20] |  | % inhibition of Wet-Dog Shake (TRPM8; oral dose 0.3 mg/kg): 56% |
|  | 39% | O=C(N[C@@H](CCO)Cc1ccccn1)c1cccc(Cl)c1-c1cc(-c2ccc(F)cc2)[nH]n1 [Example 36-1, 3-Chloro-2-[5-(4-fluorophenyl)-1H-pyrazol-3-yl]-N-[(2R)-4-hydroxy-1-(pyridin-2-yl)butan-2-yl]benzamide] |  |  |
| 85% |  | CO[C@H](CO)[C@@H](Cc1ccccn1)NC(=O)c1ccccc1-c1n[nH]c(-c2ccc(Cl)cc2)c1F [Example 43-18] |  |  |
|  | 100% | O=C(N[C@@H](CCO)Cc1ccccn1)c1ccccc1-c1n[nH]c(-c2ccc(Cl)cc2)c1F [Example 1-223] |  |  |

| % inhibition of Wet-Dog Shake (TRPM8; oral dose 1 mg/kg) | % inhibition of Wet-Dog Shake (TRPM8; oral dose 3 mg/kg) | Structure (SMILES) | response vs control in vivo at 1 mg/kg [1] | further results |
| --- | --- | --- | --- | --- |
|  | 59% | O=C(N[C@@H](CO)Cc1nccs1)c1cccc(F)c1-c1cc(-c2ccc(F)cc2)[nH]n1 [Example 1-177] |  |  |
|  | 75% | O=C(N[C@@H](CCO)Cc1ccccn1)c1cccc(F)c1-c1n[nH]c(-c2ccc(Cl)cc2)c1F [Example 1-154] |  |  |
|  |  | O=C(NC(CCO)Cc1ccccc1)c1ccccc1-c1cc(-c2ccc(F)cc2)[nH]n1 (stereo not drawn) [Example 1-76] |  | % inhibition of Wet-Dog Shake (TRPM8; oral dose 10 mg/kg): 72% |
| 73% |  | CCO[C@H](CO)[C@@H](Cc1ccccn1)NC(=O)c1cccc(F)c1-c1cc(-c2ccc(F)cc2)[nH]n1 [Example 43-15] |  |  |
| 100% |  | O=C(N[C@H](Cc1ccccn1)C(F)(F)CO)c1cccc(F)c1-c1cc(-c2ccc(F)cc2)[nH]n1 [Example 50-5] |  |  |
|  | 98% | CCOC(c1ccccn1)[C@H](CO)NC(=O)c1cccc(F)c1-c1cc(-c2ccc(F)cc2)[nH]n1 (stereo partly drawn) [Example 43-22] |  |  |
| 100% |  | CO[C@H](CO)[C@@H](Cn1nccn1)NC(=O)c1cccc(F)c1-c1cc(-c2ccc(F)cc2)[nH]n1 [Example 27-22] |  |  |
|  | 98% | CC(O)[C@@H](Cc1ccccn1)NC(=O)c1cccc(F)c1-c1cc(-c2ccc(F)cc2)[nH]n1 (stereo partly drawn) [Example 1-113] |  |  |
| 73% |  | CO[C@H](CO)[C@@H](Cc1ncccn1)NC(=O)c1cccc(F)c1-c1cc(-c2ccc(Cl)cc2)[nH]n1 [Example 1-242] |  |  |
|  | 38% | NC(=O)[C@@H](Cc1ccccn1)NC(=O)c1cccc(F)c1-c1cc(-c2ccc(F)cc2)[nH]n1 [Example 37-1, (2R)-2-{3-Fluoro-2-[-5-(4-fluorophenyl)-1H-pyrazol-3-yl]benzoylamino}-3-(pyridin-2-yl)propanamide] |  |  |
|  | 76% | O=C(N[C@@H](CO)Cc1ccccc1)c1cccc(F)c1-c1cc(-c2ccc(F)cc2)[nH]n1 [Example 1-86] |  |  |
| 85% |  | O=C(N[C@@H](CCO)Cc1ccccn1)c1ccccc1-c1n[nH]c(-c2ccc(F)cc2)c1F [Example 1-173] |  |  |
|  | 72% | C[C@@](CO)(Cc1ccccn1)NC(=O)c1cccc(F)c1-c1cc(-c2ccc(F)cc2)[nH]n1 [Example 36-2] |  |  |
|  | 44% | O=C(N[C@@H](CO)Cc1ncccc1C(F)(F)F)c1cccc(F)c1-c1cc(-c2ccc(F)cc2)[nH]n1 [Example 1-197] |  |  |
|  | 46% | O=C(N[C@@H](CO)Cc1ccccn1)c1ccccc1-c1cc(-c2ccc(Cl)cc2)[nH]n1 [Example 1-59] |  |  |
|  | 32% | CC(C)(O)[C@@H](Cc1ccccn1)NC(=O)c1cccc(Cl)c1-c1cc(-c2ccc(F)cc2)[nH]n1 [Example 33-3] |  |  |
|  | 84% | O=C(N[C@@H](CO)Cc1ccccn1)c1cccc(F)c1-c1cc(-c2ccc(Cl)cc2)[nH]n1 [Example 1-137] |  |  |
|  | 56% | C[C@@](Cc1ccccn1)(NC(=O)c1cccc(F)c1-c1cc(-c2ccc(F)cc2)[nH]n1)C(N)=O [Example 24-7] |  |  |
| 80% |  | CO[C@H](CO)[C@@H](Cc1nccs1)NC(=O)c1cccc(F)c1-c1cc(-c2ccc(F)cc2)[nH]n1 [Example 27-19] |  |  |
|  |  | CO[C@H](CO)[C@@H](Cc1ccccn1)NC(=O)c1ccccc1-c1n[nH]c(-c2ccc(F)cc2)c1F [Example 43-5] |  | % inhibition of Wet-Dog Shake (TRPM8; oral dose 0.3 mg/kg): 98% |
|  |  | NC(=O)[C@H](Cc1ccccc1)NC(=O)c1ccccc1-c1cc(-c2ccccc2)[nH]n1 [Example 1-14] | 138% |  |
